Data reported in PubChem BioAssay AID1918930 (Molecular Pharmacology Branch, DTP, NCI, 2023).

Test system: 233499-124-R-J3-PDC complex spheroid viability, % test/control
Assay: Anticancer human tumor 233499-124-R-J3-PDC patient-derived colon adenocarcinoma cell line growth inhibition
Details: for IC50: curve of first compound; for viability, T/C: stronger effect = lower value
Procedure, shortened: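 Complex spheroids of tumor cells with HUVEC and human MSCs, exposed to iadademstat combined with other agents. Each agent tested in half-log steps from near clinical Cmax (else 10 microM top), DMSO ≤0.25%.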

[1] = second compound 0.1 µM, first compound 0.0316 µM
[2] = second compound 0.1 µM, first compound 0.1 µM
[3] = second compound 0.1 µM, first compound 0.316 µM
[4] = second compound 0.1 µM, first compound 1 µM
[5] = second compound 0.1 µM, first compound 3.16 µM
[6] = second compound 0.1 µM, first compound 10 µM
[7] = second compound 0.316 µM, first compound 0.0316 µM
[8] = second compound 0.316 µM, first compound 0.1 µM
[9] = second compound 0.316 µM, first compound 0.316 µM
[10] = second compound 0.316 µM, first compound 1 µM
[11] = second compound 0.316 µM, first compound 3.16 µM
[12] = second compound 0.316 µM, first compound 10 µM
[13] = second compound 1 µM, first compound 0.0316 µM
[14] = second compound 1 µM, first compound 0.1 µM
[15] = second compound 1 µM, first compound 0.316 µM
[16] = second compound 1 µM, first compound 1 µM
[17] = second compound 1 µM, first compound 3.16 µM
[18] = second compound 1 µM, first compound 10 µM
[19] = second compound 3.16 µM, first compound 0.0316 µM
[20] = second compound 3.16 µM, first compound 0.1 µM
[21] = second compound 3.16 µM, first compound 0.316 µM
[22] = second compound 3.16 µM, first compound 1 µM
[23] = second compound 3.16 µM, first compound 3.16 µM
[24] = second compound 3.16 µM, first compound 10 µM
[25] = second compound 10 µM, first compound 0.0316 µM
[26] = second compound 10 µM, first compound 0.1 µM
[27] = second compound 10 µM, first compound 0.316 µM
[28] = second compound 10 µM, first compound 1 µM
[29] = second compound 10 µM, first compound 3.16 µM
[30] = second compound 10 µM, first compound 10 µM
[31] = second compound 0.1 µM, first compound 0.00316 µM
[32] = second compound 0.1 µM, first compound 0.01 µM
[33] = second compound 0.316 µM, first compound 0.00316 µM
[34] = second compound 0.316 µM, first compound 0.01 µM
[35] = second compound 1 µM, first compound 0.00316 µM
[36] = second compound 1 µM, first compound 0.01 µM
[37] = second compound 3.16 µM, first compound 0.00316 µM
[38] = second compound 3.16 µM, first compound 0.01 µM
[39] = second compound 10 µM, first compound 0.00316 µM
[40] = second compound 10 µM, first compound 0.01 µM
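Also: spheroids exposed to agents for one week before readout.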

For `CC(C)c1c(-c2ccccc2)nc2c(C#N)c[nH]n2c1=O` + NC1CCC(NC2CC2c2ccccc2)CC1, the IC50 (second compound 0.1 µM) was greater than 10000 nM, the IC50 (second compound 0.316 µM) was greater than 10000 nM and the IC50 (second compound 1 µM) was greater than 10000 nM. For the same compound, the IC50 (second compound 3.16 µM) was greater than 10000 nM, the IC50 (second compound 10 µM) was greater than 10000 nM and the viability, T/C [1] was 119%. For the same compound, the viability, T/C [2] was 98.5%, the viability, T/C [3] was 99.8% and the viability, T/C [4] was 102%. It also gave a viability, T/C [5] of 118%, a viability, T/C [6] of 120% and a viability, T/C [7] of 93.6%. The viability, T/C [8] was 110%, the viability, T/C [9] was 97.3% and the viability, T/C [10] was 107%. It also gave a viability, T/C [11] of 118%, a viability, T/C [12] of 115% and a viability, T/C [13] of 83.7%. The viability, T/C [14] was 104%, the viability, T/C [15] was 90% and the viability, T/C [16] was 101%. It also gave a viability, T/C [17] of 100%, a viability, T/C [18] of 101% and a viability, T/C [19] of 89.1%. For the same compound, the viability, T/C [20] was 85.9%, the viability, T/C [21] was 96.8% and the viability, T/C [22] was 85.6%. It also gave a viability, T/C [23] of 103%, a viability, T/C [24] of 104% and a viability, T/C [25] of 83.7%. It also gave a viability, T/C [26] of 84.8%, a viability, T/C [27] of 86.2% and a viability, T/C [28] of 83.6%. For the same compound, the viability, T/C [29] was 85.9% and the viability, T/C [30] was 74.2%.
Work on `CC1COCCN1c1cc(-c2ccnn2C)c2ccnc(-c3ccn[nH]3)c2n1` (stereo not given) + NC1CCC(NC2CC2c2ccccc2)CC1 yielded an IC50 (second compound 0.1 µM) of 28.5 nM, an IC50 (second compound 0.316 µM) of 57.7 nM and an IC50 (second compound 1 µM) of 19 nM. The IC50 (second compound 3.16 µM) was 22.7 nM, the IC50 (second compound 10 µM) was 17.5 nM and the viability, T/C [31] was 86.8%. The viability, T/C [32] was 91.9%, the viability, T/C [1] was 46.1% and the viability, T/C [2] was 45.4%. The viability, T/C [3] was 25.4%, the viability, T/C [4] was 30.7% and the viability, T/C [33] was 101%. For the same compound, the viability, T/C [34] was 79.2%, the viability, T/C [7] was 63.8% and the viability, T/C [8] was 39.1%. For the same compound, the viability, T/C [9] was 30.1%, the viability, T/C [10] was 33.6% and the viability, T/C [35] was 87.3%. For the same compound, the viability, T/C [36] was 71.1%, the viability, T/C [13] was 32.8% and the viability, T/C [14] was 33.9%. It also gave a viability, T/C [15] of 21.9%, a viability, T/C [16] of 28.5% and a viability, T/C [37] of 81.1%. It also gave a viability, T/C [38] of 71.2%, a viability, T/C [19] of 39.9% and a viability, T/C [20] of 30%. For the same compound, the viability, T/C [21] was 18.1%, the viability, T/C [22] was 22.2% and the viability, T/C [39] was 79.5%. The viability, T/C [40] was 63.5%, the viability, T/C [25] was 35% and the viability, T/C [26] was 27.3%. It also gave a viability, T/C [27] of 17.8% and a viability, T/C [28] of 23.1%.
Compound `CC1COCCN1c1cc(C2(S(C)(=N)=O)CC2)nc(-c2ccnc3[nH]ccc23)n1` (stereo not given) + NC1CCC(NC2CC2c2ccccc2)CC1 has an IC50 (second compound 0.1 µM) greater than 10000 nM, an IC50 (second compound 0.316 µM) greater than 10000 nM and an IC50 (second compound 1 µM) greater than 10000 nM. It also gave an IC50 (second compound 3.16 µM) greater than 10000 nM, an IC50 (second compound 10 µM) of 1390 nM and a viability, T/C [1] of 105%. For the same compound, the viability, T/C [2] was 91.5%, the viability, T/C [3] was 87.8% and the viability, T/C [4] was 82.8%. It also gave a viability, T/C [5] of 62.6%, a viability, T/C [6] of 59.9% and a viability, T/C [7] of 102%. It also gave a viability, T/C [8] of 98.8%, a viability, T/C [9] of 95.8% and a viability, T/C [10] of 100%. For the same compound, the viability, T/C [11] was 90%, the viability, T/C [12] was 58.1% and the viability, T/C [13] was 98.8%. The viability, T/C [14] was 78.5%, the viability, T/C [15] was 84.3% and the viability, T/C [16] was 66.3%. For the same compound, the viability, T/C [17] was 63.4%, the viability, T/C [18] was 65% and the viability, T/C [19] was 79.5%. It also gave a viability, T/C [20] of 92.4%, a viability, T/C [21] of 80% and a viability, T/C [22] of 67.8%. The viability, T/C [23] was 61.7%, the viability, T/C [24] was 51.6% and the viability, T/C [25] was 81.4%. It also gave a viability, T/C [26] of 71.3%, a viability, T/C [27] of 80.9% and a viability, T/C [28] of 52.5%. For the same compound, the viability, T/C [29] was 43.9% and the viability, T/C [30] was 43.3%.
Work on `COc1ccc([C@@H](O)c2cc(-c3ncnc4cc(N5CCOCC5)ccc34)c(F)cc2Cl)nn1` + NC1CCC(NC2CC2c2ccccc2)CC1 yielded an IC50 (second compound 0.1 µM) of 4140 nM, an IC50 (second compound 0.316 µM) of 3720 nM and an IC50 (second compound 1 µM) of 4020 nM. For the same compound, the IC50 (second compound 3.16 µM) was 4020 nM, the IC50 (second compound 10 µM) was 2790 nM and the viability, T/C [1] was 102%. For the same compound, the viability, T/C [2] was 82.3%, the viability, T/C [3] was 86.9% and the viability, T/C [4] was 81.8%. It also gave a viability, T/C [5] of 62.4%, a viability, T/C [6] of 12.6% and a viability, T/C [7] of 102%. It also gave a viability, T/C [8] of 96.8%, a viability, T/C [9] of 86.7% and a viability, T/C [10] of 79.8%. For the same compound, the viability, T/C [11] was 58.4%, the viability, T/C [12] was 10.8% and the viability, T/C [13] was 94.4%. For the same compound, the viability, T/C [14] was 79.2%, the viability, T/C [15] was 64.7% and the viability, T/C [16] was 74.1%. The viability, T/C [17] was 64%, the viability, T/C [18] was 12.8% and the viability, T/C [19] was 85.4%. It also gave a viability, T/C [20] of 83.8%, a viability, T/C [21] of 75.2% and a viability, T/C [22] of 67.5%. For the same compound, the viability, T/C [23] was 65.3%, the viability, T/C [24] was 9.45% and the viability, T/C [25] was 92.6%. The viability, T/C [26] was 95.1%, the viability, T/C [27] was 63.1% and the viability, T/C [28] was 57.4%. For the same compound, the viability, T/C [29] was 65.9% and the viability, T/C [30] was 11.2%.
Work on `O=C(C=Cn1cnc(-c2cc(C(F)(F)F)cc(C(F)(F)F)c2)n1)NNc1cnccn1` + NC1CCC(NC2CC2c2ccccc2)CC1 yielded an IC50 (second compound 0.1 µM) of 102 nM, an IC50 (second compound 0.316 µM) of 144 nM and an IC50 (second compound 1 µM) of 84.6 nM. For the same compound, the IC50 (second compound 3.16 µM) was 130 nM, the IC50 (second compound 10 µM) was 84.6 nM and the viability, T/C [31] was 106%. The viability, T/C [32] was 102%, the viability, T/C [1] was 99.5% and the viability, T/C [2] was 49.5%. It also gave a viability, T/C [3] of 31.1%, a viability, T/C [4] of 19.8% and a viability, T/C [33] of 119%. For the same compound, the viability, T/C [34] was 109%, the viability, T/C [7] was 97.4% and the viability, T/C [8] was 59.2%. It also gave a viability, T/C [9] of 28.2%, a viability, T/C [10] of 11.7% and a viability, T/C [35] of 115%. For the same compound, the viability, T/C [36] was 106%, the viability, T/C [13] was 106% and the viability, T/C [14] was 40%. It also gave a viability, T/C [15] of 30.9%, a viability, T/C [16] of 12% and a viability, T/C [37] of 99.3%. It also gave a viability, T/C [38] of 90.8%, a viability, T/C [19] of 91.8% and a viability, T/C [20] of 54.9%. The viability, T/C [21] was 27.8%, the viability, T/C [22] was 14.2% and the viability, T/C [39] was 96.8%. It also gave a viability, T/C [40] of 97.3%, a viability, T/C [25] of 87.3% and a viability, T/C [26] of 43.2%. It also gave a viability, T/C [27] of 22% and a viability, T/C [28] of 15.8%.
